{
  "source": "patent US20100297109A1",
  "about": "“METHODS FOR INHIBITING FASCIN” (Cornell University, priority 2007, published 2010)",
  "key": {"[1]": {"tested_on": "human breast tumor MDA-MB-231 cells", "experiment": "Wound-healing assay, serum-induced migration of MDA-MB-231 cells", "format": "cell-based", "conditions": "20 μM", "description": "(§1) Cells. Mouse 4T1 mammary tumor cells and human MDA-MB-231 breast tumor cells were obtained from ATCC and have been described previously (Shan et al. 2005, Yang et al. 2005). 4T1 cells were cultured in RPMI 1640 medium supplemented with 10% FBS. MDA-MB-231 cells were cultured in DMEM supplemented with 10% FBS. Wound-healing assay. The wound-healing assay involves observing whether confluent cells can migrate across a scrape or wound in the cell layer. Cell migration assays were performed as described previously (Yang et al. 2005, Shan et al 2006). Tumor cells were plated in a 24-well plate coated with gelatin in standard media. After the cells grew to confluence, wounds were made in the confluent layer of cell using a sterile instrument such as a sterile pipette tip. The cells were washed with Phosphate Buffered Saline (PBS) or other sterile solutions and then the migration was induced by adding medium supplemented with 10% FBS. When the wound for the positive control closed, cells were fixed with 3.7% formaldehyde and stained with crystal violet staining solution. […] Photographs several random regions of the filter facing the second chamber are taken and the number of cells counted to calculate the average number of cells that had transmigrated."}, "[2]": {"biological_target": "T1, fascin (Homo sapiens, UniProt Q16658)", "experiment": "F-actin binding assay, high-speed centrifugation", "parameters": "GST (N); made in house; host or cells: Escherichia coli BL21"}, "[3]": {"biological_target": "T1, fascin", "experiment": "Chamber migration of fascin siRNA-treated 4T1 cells rescued with human fascin", "format": "cell-based", "parameters": "expressed in transfected cells; host or cells: 4T1 mouse mammary tumor cells treated with mouse fascin siRNA 2", "conditions": "human fascin in fascin siRNA-treated 4T1 cells", "description": "(§2) Boyden Chamber Cell Migration Assay. Cells (5×10^4) suspended in starvation medium were added to the upper chamber of an insert (6.5 mm diameter, 8-micrometer pore size, Becton Dickenson), and the insert was placed in a 24-well dish containing starvation medium with or without 10% FBS (Yang et al. 2005, Shan et al. 2006). When used, inhibitors were added to both chambers. Migration assays were carried out for 4-6 hours and cells were fixed with 3.7% formaldehyde. Cells were stained with crystal violet staining solution, and cells on the upper side of the insert were removed with a cotton swab. Three randomly selected fields (10× objectives) on the lower side of the insert were photographed, and the migrated cells were counted. The migration was expressed as either the average number of migrated cells in a field or as percentage of migrated cells in positive control. Percentage was calculated with the formula P=100×(M−Mnc)/Mpc, where P is the percentage of migrated cells, M is the number of migrated cells, Mnc is the number of migrated cells in negative controls, and Mpc is the number of migrated cells in positive controls."}, "[4]": {"tested_on": "MDA-MB-231 human breast tumor cells", "experiment": "Experimental lung metastasis of MDA-MB-231 cells in NOD-SCID mice, bioluminescence imaging", "format": "in vivo, mouse", "conditions": "10 mg/kg I.P. every other day for seven weeks", "description": "Breast Tumor Metastasis in Mice. All animal work was performed in compliance with the Institutional Animal Care and Use Committee of the Weill Medical College. Spontaneous 4T1 mouse breast tumor metastasis assay was done as described previously (Shan et al. 2005). NOD-SCID immunodeficient mice were used for experimental lung metastasis experiments. MDA-MB-231 human breast tumor cells expressing the TGL reporter were trypsinized and washed with PBS. This artificial TGL reporter gene encodes a triple fusion protein with herpes simplex virus 1 thymidine kinase fused to the N-terminus of enhanced GFP and firefly luciferase fused to the C-terminus of GFP (Ponomarev et al. 2004). Subsequently 1×10^6 cells in 0.2 ml PBS were injected into the lateral tail vein. […] Three randomly selected fields (10×objectives) on the lower side of the insert were photographed, and the cells on the lower surface of the insert were counted.\nThird, the experimental metastasis model with MDA-MB-231 human tumor cells in immunodeficient mice was used to investigate the role of fascin in tumor metastasis and the effect of macroketone on the metastasis of human tumors in mice (FIG. 8 E-H). […] GFP-positive cells were enriched by fluorescence-activated cell sorting. […] The metastasis of tumor cells to the lung was monitored by non-invasive bioluminescence imaging (Minn et al. 2005). […]"}, "[5]": {"tested_on": "human breast tumor MDA-MB 231 cells", "experiment": "Cell migration assay, MDA-MB-231 cells", "format": "cell-based", "description": "as §1, with “media.” for “media. After the cells grew to confluence, wounds were made in the confluent layer of cell using a sterile instrument such as a sterile pipette tip. The cells were washed with Phosphate Buffered Saline (PBS) or other sterile solutions and then the migration was induced by adding medium supplemented with 10% FBS. When the wound for the positive control closed, cells were fixed with 3.7% formaldehyde and stained with crystal violet staining solution.”\n(§3) Boyden Chamber Cell Migration Assay. […] Three randomly selected fields (10× objectives) on the lower side of the insert were photographed, and the migrated cells were counted. The migration was expressed as either the average number of migrated cells in a field or as percentage of migrated cells in positive control. Percentage was calculated with the formula P=100×(M−Mnc)/Mpc, where P is the percentage of migrated cells, M is the number of migrated cells, Mnc is the number of migrated cells in negative controls, and Mpc is the number of migrated cells in positive controls."}, "[6]": {"tested_on": "4T1 cells", "experiment": "Boyden chamber cell migration assay, serum-induced migration of 4T1 cells", "format": "cell-based, mouse", "conditions": "FIGS. 1C and 1D", "description": "as §1, with “media.” for “media. After the cells grew to confluence, wounds were made in the confluent layer of cell using a sterile instrument such as a sterile pipette tip. The cells were washed with Phosphate Buffered Saline (PBS) or other sterile solutions and then the migration was induced by adding medium supplemented with 10% FBS. When the wound for the positive control closed, cells were fixed with 3.7% formaldehyde and stained with crystal violet staining solution.”\nas §3"}, "[7]": {"tested_on": "human prostate tumor PC-3 cells", "experiment": "Cell migration assay, PC-3 cells", "format": "cell-based"}, "[8]": {"tested_on": "human colon tumor Lovo cells", "experiment": "Cell migration assay, Lovo cells", "format": "cell-based"}, "[9]": {"tested_on": "human fascin His474 to Lys or Ala mutants", "experiment": "Chamber migration of fascin siRNA-treated 4T1 cells rescued with His474 mutants of human fascin", "format": "cell-based", "conditions": "His474 to Lys or Ala human fascin in fascin siRNA-treated 4T1 cells", "description": "as §2"}},
  "data": [
    {"compound": "COC1C=CCCCCC(=O)CCC(C)=CC(C)C1O", "note": "(stereo not drawn) [macroketone, Migrastatin ketone]", "values": [
      {"measurement": "inhibition of serum-induced migration (wound-healing)", "setting": "[1]", "value": "inhibited the migration"},
      {"measurement": "fascin pulled down by F-actin", "setting": "[2]", "value": "significantly less fascin was pulled down"},
      {"measurement": "sensitivity of rescued migration", "setting": "[3]", "value": "sensitive"},
      {"measurement": "reduction of metastasis of MDA-MB-231 cells (photon flux)", "setting": "[4]", "value": "> 80", "unit": "%"},
      {"measurement": "inhibition of migration", "setting": "[5]", "value": "inhibited the migration"},
      {"measurement": "IC50", "setting": "[6]", "value": 100, "unit": "nM"},
      {"measurement": "inhibition of migration", "setting": "[7]", "value": "inhibited the migration"},
      {"measurement": "inhibition of migration", "setting": "[8]", "value": "inhibited the migration"},
      {"measurement": "inhibition of rescued migration", "setting": "[9]", "value": "not inhibited"}
    ]}
  ]
}
